Experimental data as given in patent US11173146B2, “Selective activators of the intermediate conductance CA2+activated K+ channel KCa3.1 and their methods of use” (The Regents of the University of California, priority 2014, dated 2021).

Columns and labels:
KCa2/3 channels = conditions: literature; read-out: EC50s for activation of KCa2/3 channels; cited from earlier work
[1] = test system: voltage-gated sodium (NaV) channels; conditions: literature; cited from earlier work
[2] = rats; literature; cited from earlier work
dogs = conditions: intravenous 2 mg/kg, literature; cited from earlier work
mice = conditions: literature, cited from earlier work
KCa3.1 = KCa3.1 (Homo sapiens, UniProt O15554+P0DP23); conditions: literature; cited from earlier work
KCa2 channels = conditions: literature; cited from earlier work
KV11.1 (hERG) = target: T1, KV11.1 (hERG) (Homo sapiens, UniProt Q12809); conditions: literature; cited from earlier work
T1 construct: host or cells: HEK-293
T1 sequence (Q12809 whole entry): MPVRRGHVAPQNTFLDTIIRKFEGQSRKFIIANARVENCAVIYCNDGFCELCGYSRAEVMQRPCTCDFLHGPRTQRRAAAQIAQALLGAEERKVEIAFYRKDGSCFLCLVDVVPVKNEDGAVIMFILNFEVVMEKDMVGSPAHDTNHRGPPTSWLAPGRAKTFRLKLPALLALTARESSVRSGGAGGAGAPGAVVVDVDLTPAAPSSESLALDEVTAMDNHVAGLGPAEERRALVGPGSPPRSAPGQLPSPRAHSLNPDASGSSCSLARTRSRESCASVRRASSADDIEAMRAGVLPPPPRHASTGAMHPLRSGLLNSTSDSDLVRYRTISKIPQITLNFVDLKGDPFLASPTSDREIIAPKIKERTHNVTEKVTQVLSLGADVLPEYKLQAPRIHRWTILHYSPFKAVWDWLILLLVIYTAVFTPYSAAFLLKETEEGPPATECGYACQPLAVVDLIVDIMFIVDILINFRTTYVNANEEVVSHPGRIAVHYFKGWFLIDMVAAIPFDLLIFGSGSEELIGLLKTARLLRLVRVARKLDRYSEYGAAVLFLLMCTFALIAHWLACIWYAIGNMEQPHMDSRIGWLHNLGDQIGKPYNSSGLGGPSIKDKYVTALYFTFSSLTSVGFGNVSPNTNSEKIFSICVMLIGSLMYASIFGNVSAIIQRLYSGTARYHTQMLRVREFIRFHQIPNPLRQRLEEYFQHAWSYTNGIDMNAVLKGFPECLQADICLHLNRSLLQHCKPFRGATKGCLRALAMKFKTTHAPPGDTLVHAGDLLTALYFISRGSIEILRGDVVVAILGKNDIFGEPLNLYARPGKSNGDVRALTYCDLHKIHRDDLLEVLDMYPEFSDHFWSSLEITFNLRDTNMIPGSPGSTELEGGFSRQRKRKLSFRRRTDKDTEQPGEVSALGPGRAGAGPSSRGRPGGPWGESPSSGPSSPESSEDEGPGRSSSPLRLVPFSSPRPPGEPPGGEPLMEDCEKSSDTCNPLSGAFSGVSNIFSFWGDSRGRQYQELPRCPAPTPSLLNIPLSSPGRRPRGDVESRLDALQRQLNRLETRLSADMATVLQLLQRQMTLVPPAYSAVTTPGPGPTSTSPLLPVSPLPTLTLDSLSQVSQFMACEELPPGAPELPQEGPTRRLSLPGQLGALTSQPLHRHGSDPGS

[3] = Solubility for electrophysiology testing; format: physicochemical

Nc1nc2ccc(OC(F)(F)F)cc2s1 [Riluzole]
EC50 (KCa2/3 channels): 10000 to 20000 nM
concentrations that inhibit/affect NaV channels [1]: 1 to 50 µM

Nc1nc2c(ccc3ccccc32)s1 [SKA-31, naphtho[1,2-d]thiazol-2-ylamine]
half-live [2]: 12 h
reduction in blood pressure (dogs): −30 mmHg
heart rate (mice; 100 mg/kg): significant bradycardia
duration of blood pressure lowering (mice; 10-30 mg/kg): 60 to 90 min
lowering of blood pressure (mice; 10-30 mg/kg): ~30 mmHg

O=C1Nc2c(ccc(Cl)c2Cl)C1=NO [NS309, 6,7-dichloro-1H-indole-2,3-dione 3 oxime]
EC50 (KCa3.1): ~20 nM
EC50 (KCa2 channels): ~600 nM
concentration that inhibits KV11.1 (hERG) (KV11.1 (hERG)): 1000 nM

Nc1nc2c(cc(Br)c3ccccc32)s1 [SKA-87, 5-Bromooaphtho[1,2-d]thiazol-2-amine]
solubility [3]: too insoluble to be tested
